Measurements published in patent EP3086659B1, “NUTRITIONAL COMPOSITION FOR THE PREVENTION AND TREATMENT OF COPD AND RELATED SYMPTOMS” (Thompson S.r.L., priority 2013, dated 2015).
Like-named read-outs stand apart in the source and are kept apart here.

How the values were obtained:
[1] = Clinical study on volunteers: blood (serum) concentration and pharmacokinetic parameters of curcumin after oral administration; type: in vivo, healthy volunteers
Procedure: Subsequently, up to 1 h, a rapid decrease is observed followed by a gradual decline to 0 in the next three hours. The following Table lists the pharmacokinetic parameters (mean ± SEM). Table
The maximum serum concentration, when administered alone, was just 0.006 µg/ml 1 hour after administration, while in combination with piperine, the maximum serum concentration (Cmax) had increased to 0.18 µg/ml and was reached earlier at 0.75 h from the administration. The volume of distribution (Vd) and the total clearance value (CI) were not calculated for curcumin administered alone as it was not possible to determine the serum levels in most of the measurements of the greater number of subjects. […] 4 and in the preceding table reflect an increase in the bioavailability of curcumin equal to 2000% in the subjects treated with the combination of curcumin and piperine.

HO-1 = HO-1 mRNA expression by quantitative real-time PCR compared to GAPDH; type: cell-based, Human; conditions: 15 µM, 6 h
Description: (§1) Curcumin (CUR), N-acetyl-L-cysteine (NAC) and glutathione in reduced (GSH) and oxidised (GSSG) form and other reagents were supplied by Sigma. Human alveolar epithelial cells A549 were purchased from American Type Culture Collection (ATCC CCL-185). […] GRX is a key enzyme in the regulation of the cellular oxidative state, being responsible for the regeneration of GSH from GSSG and in the regeneration of dehydroascorbate.

Nrf2 [2] = experiment: Expression of Nrf2 protein in nuclear extracts (Western blot); type: cell-based, Human; conditions: 15 µM, after one hour up to 12h, three independent Western blots
Description: Curcumin (CUR), N-acetyl-L-cysteine (NAC) and glutathione in reduced (GSH) and oxidised (GSSG) form and other reagents were supplied by Sigma. Human alveolar epithelial cells A549 were purchased from American Type Culture Collection (ATCC CCL-185). […] The combination of NAC and CUR induced a slightly higher level of Nrf2 expression.

[3] = test system: glutathione reductase (GRX); experiment: Glutathione reductase (GRX) mRNA expression by quantitative real-time PCR compared to GAPDH; type: cell-based, Human; conditions: 15 µM, 6 h
Description: as §1

[4] = test system: Human alveolar epithelial cells A549; experiment: Determination of intracellular glutathione (GSH and GSSG), glutathione reductase-recycling analysis; type: cell-based; conditions: different concentrations (0-50 µM), 6 hours
Procedure: Curcumin (CUR), N-acetyl-L-cysteine (NAC) and glutathione in reduced (GSH) and oxidised (GSSG) form and other reagents were supplied by Sigma. Human alveolar epithelial cells A549 were purchased from American Type Culture Collection (ATCC CCL-185). Levels of reduced (GSH) and oxidised (GSSG) Glutathione were measured after exposure of the cells for 6 hours to curcumin, NAC and curcumin and NAC association (ratio 1/1) using the method already described in Calabrese et al. 1998; Motterlini et al. 2000a). Cells harvested in cold PBS were frozen-thawed three times and an aliquot of this suspension was added to a buffer solution containing […] of EDTA and 10 mM of 5,5-dithiobis- (2-nitrobenzoic acid). The total glutathione was measured by spectroscopy (optical density of 412 nm) using the glutathione reductase-recycling analysis. In order to determine the quantity of GSSG, an aliquot of the cell suspension was added to an equal volume of buffer containing EDTA and N-ethylmaleimide (10 mM). The sample was mixed and centrifuged and the supernatant was passed through a Sep-Pak C18 cartridge (Waters, Milford, MA) to remove the excess of N-ethylmaleimide. […] Intracellular glutathione was determined by comparison with a standard curve obtained with standard solutions of GSH and GSSG and was expressed as nmoles/mg protein. […]

Nrf2 [5] = experiment: Nrf2 mRNA expression by quantitative real-time PCR compared to GAPDH; type: cell-based, Human; conditions: 15 µM, 6 h
Description: as §1

| SMILES | Tmax ([1]; human, 2 g, serum curcumin, oral administration, healthy volunteers (n = 8), mean ± SEM) [h] | Cmax ([1]; human, 2 g, serum curcumin, oral administration, healthy volunteers (n = 8), mean ± SEM, read-out: Cmax) [ng/mL] | Serum levels of curcumin ([1]; oral, 2 g of curcumin alone or with 20 mg of piperine, measurements up to 0.75 h) | Cmax ([1]; serum curcumin, oral administration, healthy volunteers (n = 8), mean ± SEM) [ng/mL] | AUC(0-∞) ([1]; serum curcumin, oral administration, healthy volunteers (n = 8), trapezoidal method, mean ± SEM) [µg/h/mL] | HO-1 mRNA (HO-1) | expression of the protein Nrf2 in the nucleic extracts (Nrf2 [2]) | glutathione reductase (GRX) mRNA [3] | levels of GSSG [4] | intracellular GSH ([4]; dose-dependent) | Nrf2 mRNA (Nrf2 [5]) |
| --- | --- | --- | --- | --- | --- | --- | --- | --- | --- | --- | --- |
| COc1cc(/C=C/C(=O)CC(=O)/C=C/c2ccc(O)c(OC)c2)ccc1O [Curcumin, (1E, 6E)-1,7-bis-(4-hydroxy-3-methoxyphenyl)-epta-1,6-dien-3,5-dione] | 1 | 6 | very low or undetectable | 6 ± 5 | 0.004 | – | – | – | – | – | – |
| CC(=O)N[C@@H](CS)C(=O)O [NAC, N-acetyl-L-cysteine] | – | – | – | – | – | not active | not able to induce an increase | able to induce GRX significantly | did not increase | increase of GSH | not active |
